Measurements published in US20110111016A1, “NON-DNA BASE-CONTAINING POLYNUCLEOTIDE COMPOSITIONS AND THEIR USE FOR THE MODULATION OF IMMUNE RESPONSES” (priority 2009, published 2011).
Strand notation (5' to 3'): a small letter for the sugar, then the base; units joined by * are phosphorothioate-linked, units joined directly phosphodiester-linked; [ ] holds rarer units or linkages, { } end groups; capitals alone tell only the bases. d = 2'-deoxy (DNA)

T1: human TLR9 (Homo sapiens, UniProt Q9NR96)
T1 construct: host or cells: HEK293
T1 sequence (Q9NR96 26-1032): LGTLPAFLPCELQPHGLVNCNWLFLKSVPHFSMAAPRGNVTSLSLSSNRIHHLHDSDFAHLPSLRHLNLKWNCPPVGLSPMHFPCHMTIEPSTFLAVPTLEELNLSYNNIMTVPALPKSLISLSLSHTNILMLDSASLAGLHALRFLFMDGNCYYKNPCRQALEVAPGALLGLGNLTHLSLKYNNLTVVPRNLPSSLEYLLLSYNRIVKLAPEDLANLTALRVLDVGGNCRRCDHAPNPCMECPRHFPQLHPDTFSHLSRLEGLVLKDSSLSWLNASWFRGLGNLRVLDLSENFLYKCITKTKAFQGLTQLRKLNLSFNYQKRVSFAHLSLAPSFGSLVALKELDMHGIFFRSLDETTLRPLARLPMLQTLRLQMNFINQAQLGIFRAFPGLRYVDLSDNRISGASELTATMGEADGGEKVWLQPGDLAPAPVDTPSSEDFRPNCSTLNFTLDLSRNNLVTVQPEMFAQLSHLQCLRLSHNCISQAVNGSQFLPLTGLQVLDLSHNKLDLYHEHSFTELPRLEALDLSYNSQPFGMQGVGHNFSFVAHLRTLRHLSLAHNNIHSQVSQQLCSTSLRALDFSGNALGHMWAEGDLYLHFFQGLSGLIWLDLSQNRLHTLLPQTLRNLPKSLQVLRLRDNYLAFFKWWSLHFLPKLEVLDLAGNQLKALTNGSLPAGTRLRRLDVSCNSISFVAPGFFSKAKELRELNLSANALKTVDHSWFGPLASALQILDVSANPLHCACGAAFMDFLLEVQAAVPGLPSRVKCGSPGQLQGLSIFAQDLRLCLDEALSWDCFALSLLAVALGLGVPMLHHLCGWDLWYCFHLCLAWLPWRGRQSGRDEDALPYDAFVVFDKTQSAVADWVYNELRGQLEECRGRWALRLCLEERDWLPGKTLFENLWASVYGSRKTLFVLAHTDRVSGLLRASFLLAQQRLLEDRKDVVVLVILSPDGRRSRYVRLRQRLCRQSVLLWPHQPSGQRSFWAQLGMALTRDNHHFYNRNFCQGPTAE

T2: human TLR3 (Homo sapiens, UniProt O15455)
T2 construct: host or cells: HEK293
T2 sequence (O15455 24-904): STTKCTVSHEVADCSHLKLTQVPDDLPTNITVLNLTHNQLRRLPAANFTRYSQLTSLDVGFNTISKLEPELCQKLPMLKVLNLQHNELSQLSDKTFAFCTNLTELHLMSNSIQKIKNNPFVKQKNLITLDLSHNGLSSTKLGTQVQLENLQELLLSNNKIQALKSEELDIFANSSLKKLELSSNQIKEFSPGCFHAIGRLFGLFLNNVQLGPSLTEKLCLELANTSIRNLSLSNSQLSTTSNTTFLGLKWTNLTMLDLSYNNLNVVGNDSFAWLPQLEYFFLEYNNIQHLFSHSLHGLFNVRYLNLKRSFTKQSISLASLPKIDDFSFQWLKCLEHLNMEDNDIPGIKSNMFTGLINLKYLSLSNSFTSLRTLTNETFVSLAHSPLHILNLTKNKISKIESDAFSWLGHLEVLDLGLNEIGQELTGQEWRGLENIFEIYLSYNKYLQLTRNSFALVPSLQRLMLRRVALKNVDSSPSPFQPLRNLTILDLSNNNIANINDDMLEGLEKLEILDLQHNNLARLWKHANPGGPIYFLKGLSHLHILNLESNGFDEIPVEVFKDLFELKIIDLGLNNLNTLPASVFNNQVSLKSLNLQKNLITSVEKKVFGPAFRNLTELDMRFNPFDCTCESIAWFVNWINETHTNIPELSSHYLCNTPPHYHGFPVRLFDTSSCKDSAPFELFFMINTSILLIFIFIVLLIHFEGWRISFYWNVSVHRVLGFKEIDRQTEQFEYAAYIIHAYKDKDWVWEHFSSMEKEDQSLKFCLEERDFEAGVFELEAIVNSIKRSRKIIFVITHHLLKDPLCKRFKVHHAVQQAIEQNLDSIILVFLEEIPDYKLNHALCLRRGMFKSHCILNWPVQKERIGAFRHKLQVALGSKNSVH

B1: S. typhimurium flagellin: hTLR5 positive control (protein)
chain: AQVINTNSLSLLTQNNLNKSQSALGTAIERLSSGLRINSAKDDAAGQAIANRFTANIKGLTQASRNANDGISIAQTTEGALNEINNNLQRVRELAVQSANSTNSQSDLDSIQAEITQRLNEIDRVSGQTQFNGVKVLAQDNTLTIQVGANDGETIDIDLKQINSQTLGLDTLNVQQKYKVSDTAATVTGYADTTIALDNSTFKASATGLGGTDQKIDGDLKFDDTTGKYYAKVTVTGGTGKDGYYEVSVDKTNGEVTLAGGATSPLTGGLPATATEDVKNVQVANADLTEAKAALTAAGVTGTASVVKMSYTDNNGKTIDGGLAVKVGDDYYSATQNKDGSISINTTKYTADDGTSKTALNKLGGADGKTEVVSIGGKTYAASKAEGHNFKAQPDLAEAAATTTENPLQKIDAALAQVDTLRSDLGAVQNRFNSAITNLGNTVNNLTSARSRIEDSDYATEVSNMSRAQILQQAGTSVLAQANQVPQNVLSLLR

Tests used:
Assay type in all cases: cell-based
NF-κB control cells = assay: NF-κB reporter control cells (secreted alkaline phosphatase); conditions: at 100 ng/mL, 16-20 hours
Procedure: (§1) Toll-like receptors (TLR) are known to interact with a number of natural and synthetic molecules that can function as immune adjuvants. Examples of these molecules are Poly (I:C) polynucleotides, lipopolysaccharide and CpG-containing polynucleotides. The interaction of non-DNA base-containing polynucleotides (SEQ ID NOs: 1-3) to interact with TLR and induce down-stream signaling was tested by assessing NF-κB activation in HEK293 cells expressing human TLR2, 3, 4, 5, 7, 8 and 9. TLR engagement was determined by measurement of secreted alkaline phosphatase, under the control of a reporter inducible by NF-κB. Appropriate positive controls were used for each TLR. The non-DNA base-containing polynucleotides were dissolved in sterile water at a concentration of 100 μg/mL, and used at a final concentration of 10 μg/mL. HEK293 cells containing the appropriate TLR and NF-κB reporting system (InvivoGen, San Diego, Calif., USA) were placed in wells of 96 well plates (25,000-50,000 cells, in a final volume of 200 μL medium designed for the detection of NF-κB induced secreted alkaline phosphatase expression), and incubated with non-DNA base-containing polynucleotides or positive controls for 16-20 hours. TLR activating activity was determined by measurement of absorbance at 650 nm wavelength using a Coulter AD340C absorbance detector. The results shown are expressed as Optical Density (OD).

human TLR9 = biological target: T1, human TLR9; assay: NF-κB activation (secreted alkaline phosphatase reporter) in HEK293 cells expressing human TLR9; conditions: HEK293/hTLR9 cell line; at 100 ng/mL; 16-20 hours
Procedure: as §1, with “The non-DNA base-containing polynucleotides were dissolved in sterile water at a concentration of 100 μg/mL, and used at a final concentration of 10 μg/mL.” left out

human PBMC [1] = assay: Induction of cytokines from human PBMC (ELISA cytokine capture assay); conditions: PBMC of 3 healthy adults, 48 h; increase two-fold that of background control; SEQ ID NOs 1-3 100 μg/mL, CpG 2006 and MCC 1-100 μg/mL, LPS 10 μg/mL
Description: A number of immune adjuvants are known to be capable of eliciting cytokines from human PBMC cells. Examples of such adjuvants are alum, lipopolysaccharide, monophosphoryl lipid A, CpG-containing polynucleotides and non-CpG-containing ODN's, as well as mycobacterial cell wall-DNA complex (MCC). […] PBMC were isolated from whole blood using standard Ficoll-Paque (GE Healthcare Life Sciences, Baie d'Urfé, QC, Canada) gradient centrifugation, and placed in tissue culture plates at a concentration of 10^6 cells/mL (total volume: 1 mL in RPMI 1640 medium containing 10% heat-inactivated FBS, both from Wisent, St-Bruno, QC, Canada) and 50 μg/mL gentamycin sulfate (Sigma-Aldrich Canada, Oakville, ON, Canada). SEQ ID NOs: 1, 2 or 3 were added to give a final concentration of 100 μg/mL, and the cells were cultivated for 48 h. Cytokines (IL-1β, IL-2, IL-6, IL-10 and IL-12p40) in the supernatant at the end of incubation were determined by ELISA using a cytokine capture assay process (Biosource, Camarillo, Calif.). SEQ ID NO: 32 CpG 2006 ODN (1-100 μg/mL, 5′-[…]-3′, […]), MCC (1-100 μg/mL) and LPS (10 μg/mL) were used as positive controls.

human TLR3 = biological target: T2, human TLR3; assay: NF-κB activation (secreted alkaline phosphatase reporter) in HEK293 cells expressing human TLR3; conditions: HEK293/hTLR3 cell line; at 1 μg/mL; 16-20 hours
Procedure: as §1

human PBMC [2] = assay: Induction of cytokines and chemokines from human PBMC, comparison with CpG polynucleotides (Milliplex MAP kit); conditions: for Cytokine, IL-6 / Cytokine, IL-10 / Cytokine, MCP-1 / Cytokine, RANTES (CCL5): human PBMC culture supernatant, 48 h, final concentration 10 μg/mL
Procedure: LPS and MCC were included as positive controls as described in Example 7. PBMC were isolated from whole blood using standard Ficoll-Paque Plus (GE Healthcare Life Sciences, Baie d'Urfé, QC, Canada) gradient centrifugation, and placed in tissue culture plates at a concentration of 1×10^6 cells/mL (total volume: 1 mL in RPMI 1640 medium containing 10% heat-inactivated FBS (both from Wisent, St-Bruno, QC, Canada) and 50 μg/mL gentamycin sulfate (Sigma-Aldrich Canada, Oakville, ON, Canada). Non-DNA base-containing polynucleotide SEQ ID NOs: 1, 2, 3, 4, 5, 6, 7, 8 and 9 were added to separate wells to give a final concentration of 10 μg/mL, LPS was added to give a final concentration of 10 μg/mL, and the non-CpG 4010, CpG 2336, CpG 2429 and CpG 7909 polynucleotides, SEQ ID NOs: 31, 33, 35 and 34, respectively, were added to give a final concentration of 10 μg/mL.
The cells were then cultivated for 48 h. Cytokines (interleukins IL-6 and IL-10, chemokines MCP-1 and RANTES) in the culture supernatant were measured using a Milliplex™ MAP kit (Millipore Corporation, Billerica, Mass., USA) on a Bio-Plex 200 system (Bio-Rad Laboratories, Hercules, Calif., USA). MCP-1, also known as monocyte chemotactic protein, is an essential chemokine required for effective monocyte and myeloid dendritic cell activation and trafficking across endothelial and epithelial barriers (see for example Henkel et al, 2004 Ann. Neurol. 55:221-235), and RANTES (Regulated on Activation, Normal T cell Expressed and Secreted, now more commonly known as CCL5) is produced by memory phenotype T cells and is chemotactic for and activates T-cells (see for example Swanson et al, 2002 Immunity 17:605-615).

human TLR5 = biological target: T3, human TLR5 (Homo sapiens, UniProt O60602); assay: NF-κB activation (secreted alkaline phosphatase reporter) in HEK293 cells expressing human TLR5; conditions: HEK293/hTLR5 cell line; at 100 ng/mL; 16-20 hours
T3 construct: host or cells: HEK293
T3 sequence (O60602 21-858): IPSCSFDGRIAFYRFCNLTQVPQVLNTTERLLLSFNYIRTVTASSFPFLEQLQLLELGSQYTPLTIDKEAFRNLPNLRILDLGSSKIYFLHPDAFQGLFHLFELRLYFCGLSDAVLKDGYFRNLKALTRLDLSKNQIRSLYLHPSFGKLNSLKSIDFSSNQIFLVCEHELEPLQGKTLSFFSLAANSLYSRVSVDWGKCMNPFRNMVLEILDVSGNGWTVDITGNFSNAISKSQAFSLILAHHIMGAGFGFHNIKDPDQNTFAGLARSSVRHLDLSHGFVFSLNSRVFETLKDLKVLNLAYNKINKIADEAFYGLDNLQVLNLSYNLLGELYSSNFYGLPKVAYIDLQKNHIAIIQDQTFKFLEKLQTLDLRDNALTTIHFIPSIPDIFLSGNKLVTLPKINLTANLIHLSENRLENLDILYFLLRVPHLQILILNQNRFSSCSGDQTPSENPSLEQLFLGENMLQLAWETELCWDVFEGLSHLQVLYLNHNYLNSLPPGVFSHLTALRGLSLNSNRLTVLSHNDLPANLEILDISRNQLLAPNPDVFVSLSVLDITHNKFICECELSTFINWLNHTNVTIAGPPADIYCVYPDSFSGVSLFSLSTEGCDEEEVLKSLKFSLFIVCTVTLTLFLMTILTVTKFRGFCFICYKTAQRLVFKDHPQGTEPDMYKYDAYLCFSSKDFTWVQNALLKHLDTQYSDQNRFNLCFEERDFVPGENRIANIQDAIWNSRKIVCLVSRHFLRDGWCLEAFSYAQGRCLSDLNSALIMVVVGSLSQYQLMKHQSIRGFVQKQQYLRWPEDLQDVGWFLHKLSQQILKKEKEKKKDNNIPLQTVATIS
Procedure: as §1

[3] = in comparison to LPS and MCC, Table 14

| Molecule | Cytokine, IL-6 (human PBMC [2]) [pg/mL] | Cytokine, IL-10 (human PBMC [2]) [pg/mL] | Cytokine, MCP-1 (human PBMC [2]) [pg/mL] | Cytokine, RANTES (CCL5) (human PBMC [2]) [pg/mL] | Chemokine (MCP-1, RANTES) inducing activity towards human PBMC (in words) (human PBMC [2]; [3]) | also measured |
| --- | --- | --- | --- | --- | --- | --- |
| CCCCCCCCCCCCCC(=O)O[C@@H]1[C@@H](C)[C@@]2(O)[C@@H](C=C(CO)C[C@]3(O)C(=O)C(C)=C[C@@H]23)[C@@H]2C(C)(C)[C@]12OC(C)=O [PMA, reference compound] | – | – | – | – | – | Optical Density at 650 nm, NF-κB control cells, positive control (NF-κB control cells): 2.765 |
| 5′-TCGTCGTTTTGTCGTTTTGTCGTT-3′ [SEQ ID NO: 32 CpG 2006, reference compound] | – | – | – | – | – | TLR activation, Optical Density at 650 nm, hTLR9, positive control (human TLR9): 1.904; Number of individuals responding, IL-1β (human PBMC [1]): 0/3; Number of individuals responding, IL-2 (human PBMC [1]): 0/3; Number of individuals responding, IL-6 (human PBMC [1]): 3/3; Number of individuals responding, IL-10 (human PBMC [1]): 2/3; Number of individuals responding, IL-12p40 (human PBMC [1]): 1/3 |
| Poly (I:C) [reference compound] | – | – | – | – | – | TLR activation, Optical Density at 650 nm, hTLR3, positive control (human TLR3): 2.547 |
| 5′-TGCTGCTTTTTGCTGGCTTTTT-3′ (DNA dT*dG*dC*dT*dG*dC*dT*dT*dT*dT*dT*dG*dC*dT*dG*dG*dC*dT*dT*dT*dT*dT) [SEQ ID NO: 31, reference compound] | 43 | 0 | 343 | 275 | had chemokine-inducing activity | – |
| GGGTGGNebNebNeb (DNA GGGTGGNNN; Three 3' nebularines, sugar and linkages not given here, further chemistry not given here) [SEQ ID NO: 5, 5′-OH, 3′-OH non-DNA base-containing polynucleotide] | 845 | 13 | 3600 | 202 | strong | Interleukin (cytokine) inducing activity towards human PBMC (in words) (human PBMC [2]; [3]): strong |
| B1 | – | – | – | – | – | TLR activation, Optical Density at 650 nm, hTLR5, positive control (human TLR5): 2.593 |
